SMILES strings stand for the structures. The source made the active and inactive calls. No cut-off for these calls is given here.

The nature of assay [1]: Induction of tRNA-UCCA binding to T box antiterminator RNA AM1A at 200 uM by FRET method.
A short description of assay [2]: Binding affinity to T box antiterminator RNA.
A short description of assay [3]: Binding affinity to T box antiterminator RNA AM1A by FRET.

Take `NC[C@@H]1O[C@H](O[C@H]2[C@@H](O)[C@H](O[C@@H]3[C@@H](O)[C@H](N)C[C@H](N)[C@H]3O[C@H]3O[C@H](CN)[C@@H](O)[C@H](O)[C@H]3N)O[C@@H]2CO)[C@H](N)[C@@H](O)[C@@H]1O` [FRAMYCETIN]: the outcome in assay [1] was Active. The Kd in assay [2] and in assay [3] was 8 µM each time.

Source of the values: ChEMBL document CHEMBL1149873, “Identification of neomycin B-binding site in T box antiterminator model RNA” (Bioorg Med Chem, 2008).
